Measured values as given in patent US20010055590A1, “Method for enhancing myoblast migration and invasion in the context of gene therapy” (priority 1999, published 2001).

Experiments:
Format in all cases: cell-based
[1] = tested on: mouse myoblasts; experiment: Migration of mouse myoblasts transiently over-expressing MMPs; conditions: NAC treatment, n=4
Description: Myoblast migration and invasion were examined using a commercially available in vitro cell migration and invasion assay kit (Biocoat, Becton Dickinson, Franklin Lakes, N.J.) as described by Albini et al. (A rapid in vitro assay for quantitating the invasive potential of tumor cells Cancer Res 47:3239-3245, 1987). Myoblasts were grown to approximately 70% confluence, rinsed three times in serum-free DMEM, followed by incubation for 3 hours in 0.2% bovine serum albumin (BSA) in DMEM to eliminate the effects of serum. Cells were then trypsinized and collected by centrifugation. Cells were resuspended in serum-free DMEM at a density of 1×10^5 cells/ml, and 0.5 ml aliquots of cell suspension were added to the top chamber. […] Fibronectin subfragments of 45 KDa (Sigma), 120 kDa (Gibco), 63 kDa (Retronectin, Takara) and 70 KDa (Sigma) were used alone or in combination. The growth factor concentrations used were those which could produce maximal effects as examined in the present studies by extending from values reported by Bischoff (“Chemotaxis of skeletal muscle satellite cells” Devel. Dynamics 208:505-515, 1997). […] The number of cells per field was counted in 10 randomly selected fields and averaged for each condition. […]

[2] = tested on: MMP-9; experiment: Gelatin zymography of human myoblasts, MMP-9
Description: Briefly, myoblasts were grown in 6 cm tissue culture plates to approximately 70% confluence, then rinsed three times with serumfree DMEM and incubated for 3 hours in DMEM containing 0.2% BSA to eliminate the effects of serum. Growth factors were added and cells were incubated for 24 hours. Culture medium was then collected, centrifuged to pellet detached cells, and concentrated ten-to twenty-fold using the Centricon-10 (Amicon, Beverly, Mass.) system. The protein concentration of the supernatants was determined using the Bio-Rad protein microassay system with BSA used as the standard. Samples were stored at −70° C. until use. For gelatin zymography, aliquots (10 μg as the total protein per sample) were electrophoresed at constant voltage on a 10% polyacrylamide gel containing 2 mg/ml gelatin. The gel was rinsed three times for 15 min in 2.5% Triton-X 100 to remove SDS and renature the proteins, then incubated in MMP activation buffer (0.05 M Tris-HCl, pH 7.5 with 5 mM CaCl2) for 24 hours at 37° C. with constant shaking. Gels were stained overnight in 0.5% Coomassie blue R-250, and destained for 1 hour in 40% methanol: 10% acetic acid. Proteinase activity was quantified by densitometric scanning of bands using a Bio-Rad Gel Doc 1000 video camera imaging system (Bio Rad, Hercules, Calif.).

[3] = tested on: MMP-1; experiment: Gelatin zymography of mouse myoblast culture medium, MMP-1; conditions: mouse myoblasts
Description: Gelatin zymography for assaying MMPs was carried out as previously described (Guerin and Holland “Synthesis and secretion of matrix-degrading metalloproteinases by human skeletal muscle satellite cells” Devel. Dynamics 202:91-99,1995) with minor modifications. Briefly, myoblasts were grown in 6 cm tissue culture plates to approximately 70% confluence, then rinsed three times with serumfree DMEM and incubated for 3 hours in DMEM containing 0.2% BSA to eliminate the effects of serum. Growth factors were added and cells were incubated for 24 hours. Culture medium was then collected, centrifuged to pellet detached cells, and concentrated ten-to twenty-fold using the Centricon-10 (Amicon, Beverly, Mass.) system. The protein concentration of the supernatants was determined using the Bio-Rad protein microassay system with BSA used as the standard. Samples were stored at −70° C. until use. For gelatin zymography, aliquots (10 μg as the total protein per sample) were electrophoresed at constant voltage on a 10% polyacrylamide gel containing 2 mg/ml gelatin. […] Proteinase activity was quantified by densitometric scanning of bands using a Bio-Rad Gel Doc 1000 video camera imaging system (Bio Rad, Hercules, Calif.). […]

CC(=O)N[C@@H](CS)C(=O)O [NAC, N-acetyl cysteine, reference compound]
migration capability relative to non-NAC treated cells ([1]; MMP-1 over-expressing myoblasts): 35% | migration capability relative to non-NAC treated cells ([1]; MMP-2 over-expressing myoblasts): 22%

bovine basic fibroblast growth factor [bFGF]
effect on MMP-9 expression (92 kDa band) [2]: only marginal increases in MMP-9 expression

human serum fibronectin
MMP-1 expression (57 kDa) [3]: does not significantly affect
